Measured values from PubChem BioAssay (NCI).
Values joined by “and” are separate entries in the source; they are usually repeats but may differ in a detail not shown here. Equal entries are not always repeated.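 Cultured in 96-well plates, cells were exposed to test compound for 48 hours across five concentrations. Here, GI50 denotes the concentration required for 50% inhibition of growth. TGI is the concentration that stops growth completely.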

Legend:
Experiment in all cases: inhibition of tumour cell growth, NCI panel, 48 h
[1] = system: HCT-116 colon
[2] = system: HCT-15 colon
[3] = system: NCI-H460 lung
[4] = system: OVCAR-3 ovarian
[5] = system: OVCAR-5 ovarian
[6] = system: SF-539 CNS
[7] = system: SN12C renal
[8] = system: SNB-75 CNS
[9] = system: U251 CNS
[10] = system: NCI-H522 lung

SMILES | GI50 [1] | TGI [1] | GI50 [2] [µM] | TGI [2] | GI50 [3] [µM] | TGI [3] | GI50 [4] [µM] | TGI [4] | GI50 [5] [µM] | TGI [5] | GI50 [6] [µM] | TGI [6] | GI50 [7] [µM] | TGI [7] | GI50 [8] [µM] | TGI [8] [µM] | GI50 [9] [µM] | TGI [9] | TGI [10] [µM] | GI50 [10] [µM]
COc1cc2nc(-c3cnc(N(C)C)nc3)nc(NC3CCN(Cc4ccccc4)CC3)c2cc1OC | 0.316 µM | 1.32 µM | 1.01 | 2.39 µM | 0.412 | 1.7 µM | 1.69 | 3.27 µM | 1.78 | 3.46 µM | 1.72 | 3.25 µM | 1.77 | 3.49 µM | 1.43 | 2.86 | 0.222 | 0.573 µM |  | 
O=C(O)C(CP(=O)(O)O)=C(Cl)Cl |  | > 100 µM |  | > 100 µM |  | > 100 µM |  | > 100 µM |  | > 100 µM |  | > 100 µM |  | > 100 µM |  | > 100 |  | > 100 µM |  | 
COc1ccc(C(=O)C(c2ccc(OC)cc2)C2(O)C(=O)Nc3ccccc32)cc1 (stereo not drawn) |  | > 100 µM |  | > 100 µM |  |  |  | > 100 µM |  |  |  | > 100 µM |  | > 100 µM |  | > 100 |  | > 100 µM | > 100 | 
O=S1c2ccccc2N=C(c2ccc3ccccc3c2)CC1C1=CC=CCC1 (stereo not drawn) |  |  |  | 35.7 µM |  | 54.5 µM |  | 31.8 µM |  | 40.6 µM |  | 45.3 µM |  | 36.9 µM |  | 50.6 |  |  | 33.2 | 
Cn1ccnc1C(=O)/C=C/c1ccc(C(=O)Nc2ccc(Cl)cc2)cc1 | 0.514 µM | 1.08 µM | 0.676 | 3.12 µM | 0.747 | 2 µM | 0.91 | 3.16 µM | 1.1 | 5.64 µM | 0.626 | 1.42 µM | 1.01 | 5.07 µM | 0.615 | > 33.3 |  |  | 14 | 1.81
CCN(CC)CCCC(C)Nc1cnc(C(=O)Nc2ccc(Cl)c3cccnc23)cn1 (stereo not drawn) |  |  | 2.29 | 6.3 µM | 2.64 | 6.8 µM | 2.01 | 3.97 µM | 1.83 | 3.6 µM | 1.71 | 3.12 µM | 2.19 | 5.53 µM | 3.18 | 15.1 | 1.93 | 3.83 µM | 4.34 | 2.07
COc1cc2c3c(n(CCCCOC(=O)C(F)(F)F)c(=O)c2cc1OC)-c1cc2c(cc1C3=O)OCO2 |  |  | > 100 | > 100 µM |  | > 100 µM | > 89.8 | > 100 µM | > 100 | > 100 µM | > 100 | > 100 µM | > 93.9 | > 100 µM | > 86.8 | > 100 | > 38.8 | > 100 µM | > 100 | 
CC(=O)N1N=C2/C(=C/c3ccccc3)CC(C)CC2C1c1ccccc1 (stereo not drawn) |  |  | 13.7 | 28.9 µM | 13 | 27.8 µM | 14.9 | 32.6 µM | 17.7 | 32.2 µM | 17.4 | 32.7 µM | 14.8 | 30.4 µM | 15.6 | 30.9 | 11.7 | 25.4 µM | 31.7 | 13.8
CN(C)CCNC(=O)c1cc2ccccc2c2nc3ccccc3nc12 |  | 1.87 µM |  | 3.24 µM |  |  |  | 6.35 µM |  | 5.64 µM |  | 1.55 µM |  | 3.89 µM |  | 4.26 |  | 4.92 µM | > 100 | 
CC1=C(C(=O)Nc2ccc(F)c(Cl)c2)C(c2ccccc2Cl)NC(=S)N1 (stereo not drawn) | 22.4 µM | > 50 µM | 16.2 | > 50 µM | 23.7 | > 50 µM | 39.5 | > 50 µM | > 50 | > 50 µM | > 50 | > 50 µM | 13.3 | 42.9 µM |  |  | 25.6 | > 50 µM | > 50 | 35.7
C=C1C(=O)O[C@H]2[C@H]1CC/C(COC(=O)CCCCC(=O)OC/C1=C/CC[C@@]3(C)O[C@H]3[C@H]3OC(=O)C(=C)[C@@H]3CC1)=C\CC[C@@]1(C)O[C@@H]21 |  |  | 1.73 | 4.2 µM | 3.52 | 25.5 µM | 0.84 | 2.14 µM | 2.32 | 5.94 µM | 2.01 | 4.96 µM | 2.62 | > 100 µM | 20 | > 100 | 2.58 | 8.91 µM | 3.57 | 1.76
CCOC(=O)C12CCCC1(O)N(NC(=O)c1ccccc1)C(C)=C2C(=O)OC (stereo not drawn) |  | > 100 µM |  | > 100 µM |  | > 100 µM |  | > 100 µM |  | > 100 µM |  | > 100 µM |  | > 100 µM |  |  |  | > 100 µM | > 100 | 
Cc1ccc(NC(=O)C(=O)C2C(=O)N(c3ccccc3)N=C2N)cc1C (stereo not drawn) |  | > 100 µM |  | > 100 µM |  |  |  | > 100 µM |  | > 100 µM |  | > 100 µM |  | > 100 µM |  | > 100 |  | > 100 µM | > 100 | 
COc1cc2nc3sc(C(=O)Nc4ccc(C(=O)OC(C)C)cc4)c(C(=O)Nc4ccc(Cl)cc4C)n3c(=O)c2cc1OC | 11.3 µM | > 100 µM | 17.3 | > 100 µM | 3.05 | > 100 µM | 2.66 | 10.6 µM | 17.4 | 50.2 µM | 23.2 | 80.8 µM | 22.8 | 71.1 µM | 10.2 | 27.8 | 5.14 | 18.4 µM |  | 
O=c1cc(-c2cccc(C(F)(F)F)c2)[nH]c2cc3c(cc12)OCO3 | 1.98 µM and 0.482 µM | 19.1 µM and 29.4 µM | 0.4 |  | 0.353 | 4.08 µM and 11 µM |  |  | > 100 | 50 µM and > 100 µM | 0.483 | 2.53 µM and 6.6 µM | 0.735 | 50 µM and > 100 µM |  |  | 0.145 |  | > 100 | 
CCOC(C)C(/C=N/NC(N)=S)=NNC(N)=S (stereo not drawn) |  |  |  | > 100 µM |  | > 100 µM |  |  |  | > 100 µM |  | > 100 µM |  | > 100 µM |  | > 89.4 |  | > 100 µM | > 100 | 
O=c1cccccc1NCCOCCNc1cccccc1=O |  | > 100 µM |  | > 100 µM |  | > 100 µM |  | > 100 µM |  | > 100 µM |  |  |  | > 100 µM |  | > 100 |  | > 100 µM | > 100 | 
O=c1/c(=C/c2cccc([N+](=O)[O-])c2)sc2nc3ccccc3n12 |  | > 100 µM |  | > 100 µM |  | > 100 µM |  |  |  | > 100 µM |  |  |  | > 100 µM |  | > 100 |  |  |  | 
Cc1nc(Cl)nc(Cl)c1C |  |  |  | > 100 µM |  | > 100 µM |  | > 100 µM |  | > 100 µM |  | > 100 µM |  | > 100 µM |  | > 100 |  | > 100 µM | > 100 | 
COC(=O)C1=C2CCC(=O)[C@@]2(C)C(OC(C)=O)C=CC1 (stereo partly drawn) |  | 69.6 µM |  | 87.3 µM |  | > 100 µM |  | > 100 µM |  | > 100 µM |  | > 100 µM |  | > 100 µM |  | > 100 |  | > 100 µM |  | 
CC(C)=CCC[C@H](C)[C@@H]1CC[C@]2(C)C3CC[C@]4(OC4(C)C)C(CCCO)[C@]3(C)CC[C@@]12C (stereo partly drawn) | 29 µM | > 100 µM | 26.5 | > 100 µM | 23.7 | 70.3 µM | 26.7 | 52.8 µM | 21 | 47.1 µM | 23.6 | 50.1 µM |  |  | 29.8 | 58 | 19.7 | 66.1 µM | > 100 | 32.4
Oc1ccccc1-c1nn(CNc2cccc(Cl)c2)c(=S)o1 | 25.3 µM | > 100 µM |  |  | 20.6 | > 100 µM | 30.4 | > 100 µM | > 100 | > 100 µM | 27.6 | > 100 µM | > 100 | > 100 µM |  |  | 4.91 | 39.6 µM | > 100 | > 100
CC1(C)COC(C23C4C5C2C2C3C4C52I)=N1 (stereo not drawn) |  |  |  | > 100 µM |  | > 100 µM |  | > 100 µM |  | > 100 µM |  | > 100 µM |  | > 100 µM |  |  |  | > 100 µM |  | 
COc1ccc(C(=O)OCC2OC(n3cnc4c(=S)nc[nH]c43)C(OC(=O)c3ccc(OC)cc3)C2OC(=O)c2ccc(OC)cc2)cc1 (stereo not drawn) |  | > 100 µM |  | > 100 µM |  | > 100 µM |  | > 100 µM |  | > 100 µM |  | > 100 µM |  |  |  | 77 |  | > 100 µM | 54.5 | 
Cc1cc2c(cc1Cl)SC1=CC(=O)N(c3ccccc3)C1=NS2(=O)=O | 30.9 µM | > 100 µM | > 100 | > 100 µM | 59.5 | > 100 µM | > 100 | > 100 µM | > 100 | > 100 µM |  |  | 32 | > 100 µM |  |  | 57.5 | > 100 µM | > 100 | 67.1
CCCCCCCCCCCCCC(=O)O[C@H]1CC[C@H](NC(=O)[C@H](OC)[C@H](O)[C@@H](O)[C@H](O)/C=C/C(C)C)C(=O)NC1 |  | 1.06 µM |  | 21.1 µM and 90.7 µM |  |  | 0.00435 | 10.5 µM and 17.9 µM |  | 51.2 µM and > 100 µM |  | 22 µM and 17.6 µM |  | 10.8 µM and 18.6 µM |  | 38.8 |  | 18.6 µM and 11 µM |  | 
